Experiments:
[1] = species: Homo sapiens; test: Selectivity ratio of relative binding affinity for human ERbeta to relative binding affinity for human ERalpha
[2] = species: Homo sapiens; test: Selectivity ratio of relative transcription activation for human ERbeta to relative transcription activation for human ERalpha
[3] = biological target: T1, Estrogen receptor (Homo sapiens) (UniProt P03372); test: Activity at human ERalpha expressed in HEK293 cells assessed as relative transcription activation by estrogen response element-lucifease assay relative to estradiol; assay type: cell-based; parameters: concentration or dose not given beside the values
T1 sequence (whole entry): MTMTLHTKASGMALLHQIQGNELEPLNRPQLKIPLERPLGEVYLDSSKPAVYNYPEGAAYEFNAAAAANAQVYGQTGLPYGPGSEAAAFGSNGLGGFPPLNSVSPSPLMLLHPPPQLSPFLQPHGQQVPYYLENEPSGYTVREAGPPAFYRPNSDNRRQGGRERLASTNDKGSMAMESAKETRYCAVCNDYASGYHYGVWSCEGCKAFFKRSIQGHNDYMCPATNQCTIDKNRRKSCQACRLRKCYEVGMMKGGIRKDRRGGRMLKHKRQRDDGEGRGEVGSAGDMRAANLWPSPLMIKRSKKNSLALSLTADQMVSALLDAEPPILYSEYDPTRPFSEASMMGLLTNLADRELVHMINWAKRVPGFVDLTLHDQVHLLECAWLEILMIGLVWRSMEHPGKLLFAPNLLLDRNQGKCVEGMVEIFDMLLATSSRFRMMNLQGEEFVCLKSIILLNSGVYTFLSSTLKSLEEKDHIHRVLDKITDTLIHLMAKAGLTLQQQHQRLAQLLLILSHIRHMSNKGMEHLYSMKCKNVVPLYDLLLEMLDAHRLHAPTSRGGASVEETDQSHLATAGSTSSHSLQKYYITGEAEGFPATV

[4] = biological target: Estrogen receptor beta (Homo sapiens) (UniProt Q92731); test: Activity at human ERbeta expressed in HEK293 cells assessed as relative transcription activation by estrogen response element-lucifease assay relative to estradiol; assay type: cell-based; parameters: concentration or dose not given beside the values
Estrogen receptor beta (Homo sapiens), sequence (Q92731 whole entry): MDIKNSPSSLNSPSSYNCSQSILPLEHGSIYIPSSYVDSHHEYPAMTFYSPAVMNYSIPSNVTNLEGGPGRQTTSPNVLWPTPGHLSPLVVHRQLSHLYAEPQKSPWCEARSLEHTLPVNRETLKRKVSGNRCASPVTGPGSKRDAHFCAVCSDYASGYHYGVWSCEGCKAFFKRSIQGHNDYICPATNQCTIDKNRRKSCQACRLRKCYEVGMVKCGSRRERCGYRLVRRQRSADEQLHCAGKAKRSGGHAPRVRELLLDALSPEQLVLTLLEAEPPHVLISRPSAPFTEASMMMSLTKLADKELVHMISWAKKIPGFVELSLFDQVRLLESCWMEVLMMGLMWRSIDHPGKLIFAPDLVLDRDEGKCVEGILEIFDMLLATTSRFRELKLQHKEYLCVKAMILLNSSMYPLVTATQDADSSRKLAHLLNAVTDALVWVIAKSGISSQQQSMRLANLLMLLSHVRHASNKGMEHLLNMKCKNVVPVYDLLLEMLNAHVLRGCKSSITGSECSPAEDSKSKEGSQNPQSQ

[5] = Hepatotoxicity in Sprague-Dawley rat hepatocyte after 2 hrs; assay type: toxicity, cell-based; conditions: hepatocytes, read-out: LC50

Row | Ratio [1] | Activity [3] | Activity [4] | Structure (SMILES) | Ratio [2] | CC50 at 2 h [5]
1 | 2.3 | 115% | 117% | C[C@]12CC=C(c3ccc(O)cc3Cl)C[C@H]1CC[C@@H]2O | 1 | 
2 | 1 |  |  | Cc1c(O)ccc([C@H]2CC[C@@]3(C)[C@H](CC[C@@H]3O)C2)c1F |  | 
3 | 8.3 | -9% | 196% | C[C@]12CC[C@H](c3ccc(O)c(F)c3)C[C@H]1CC[C@@H]2O |  | 
4 | 14 |  |  | C[C@]12CC[C@H](c3ccc(O)cc3)C[C@H]1CCC2=O |  | 
5 | 11.9 | -9.7% | 49.2% | Cc1cc(O)ccc1[C@H]1CC[C@@]2(C)[C@H](CC[C@@H]2O)C1 |  | 
6 | 1.3 | -16.9% | 35.9% | C#C[C@]1(O)CC[C@@H]2C[C@@H](c3ccc(O)cc3)CC[C@@]21C |  | 
7 | 0.5 | 0% | 0% | C[C@]12CC[C@H](c3cc(Cl)c(O)c(Cl)c3)C[C@H]1CC[C@@H]2O |  | 
8 | 2.8 |  |  | Cc1c(O)ccc([C@H]2CC[C@@]3(C)[C@H](CC[C@@H]3O)C2)c1C |  | 
9 | 8.7 |  |  | C[C@]12CC[C@H](c3cc(F)c(O)cc3F)C[C@H]1CC[C@@H]2O |  | 

More lines, now with the values behind:

Row | Structure (SMILES) | Ratio [1] | Activity [3] | Activity [4] | Ratio [2] | CC50 at 2 h [5]
10 | C[C@]12CC[C@@H](c3ccc(O)cc3)C[C@H]1CC[C@@H]2O |  |  |  |  | 300 µM
11 | C[C@]12CC[C@@H]3c4ccc(O)cc4CC[C@H]3[C@@H]1CC[C@@H]2O [ESTRADIOL] |  |  |  |  | 400 µM
12 | C[C@]12CC[C@H](c3ccc(O)cc3)C[C@H]1CC[C@@H]2O | 14.6 | 4.2% | 164% | 39 | 320 µM
13 | C[C@]12CC[C@H](c3ccc(O)c(F)c3F)C[C@H]1CC[C@@H]2O | 9.3 | 18.3% | 151% | 8.3 | 155 µM
14 | C[C@]12CC[C@H](c3ccc(O)cc3Cl)C[C@H]1CC[C@@H]2O |  | 90% | 189% |  | 
15 | C[C@]12CC[C@H](c3cc(F)c(O)c(F)c3)C[C@H]1CC[C@@H]2O | 6.9 |  |  |  | 
16 | C[C@]12CCC(c3ccc(O)cc3Cl)=C[C@H]1CC[C@@H]2O | 1.7 | 98.6% | 127% | 1.3 | 
17 | C[C@]12CC[C@H](c3cc(F)c(O)c(F)c3F)C[C@H]1CC[C@@H]2O | 9.3 | 12.8% | 95.4% | 7.9 | > 600 µM
18 | C[C@]12CC[C@H](c3ccc(O)cc3F)C[C@H]1CC[C@@H]2O | 5 | 44.3% | 158% | 3.6 | 250 µM

From ChEMBL document CHEMBL1649425, “A-CD estrogens. I. Substituent effects, hormone potency, and receptor subtype selectivity in a new family of flexible estrogenic compounds” (J Med Chem, 2011)
